Test results reported in patent US5256685A, “Mitomycin derivatives” (Kyowa Hakko Kogyo Co., Ltd., priority 1991, dated 1993).

Key:
Acute toxicity = conditions: mouse, in vivo, iv; i.v. once, ddY mice, observed 14 days; Behrens-Kaerber's method
Procedure: A test compound was intravenously injected once to five ddY mice as one group. […] LD50 was calculated from the death rate of each group to which the test compound was administered according to the Behrens-Kaerber's method.

Sarcoma 180 solid tumor = assay: Anti-tumor activity to sarcoma 180 solid tumor; format: in vivo; conditions: Mus musculus, Sarcoma-180, iv, 168 h; dose showing T/C=0.5 (tumor volume, 7 days after implantation); single i.v. injection 24 hours after s.c. implantation; male ddY mice
Procedure: Anti-tumor activity to sarcoma 180 solid tumor
5×10^6 Sarcoma 180 cells were abdominally implanted into a ddY mouse and the cells were collected from the ascites of the mouse 7 days after the implantation. The cells were washed once with a sterilized physiological saline solution and then suspended in a sterilized physiological saline solution to prepare a cell suspension of 5×10^7 cells/ml.
0.1 ml of the cell suspension was subcutaneously implanted into the right axillary space of male ddY mice weighing 20±2 g.
A test compound was dissolved in a physiological saline solution or a polyoxyethylene sorbitan monolaurate-containing physiological saline solution, and 0.1 to 0.2 ml of the solution was intravenously injected to 5 mice as one group 24 hours after the implantation of the tumor cells.
The anti-tumor activity of the test compound was determined by measuring the major axis (a) and the minor axis (b) of the tumor 7 days after the implantation of tumor cells, and the value of (a×b^2 /2), which corresponds to the volume of the tumor, was calculated. The intended anti-tumor activity is represented by a ratio of T/C, in which C indicates the tumor volume of mice of the control group to which no test compound was administered and T indicates the tumor volume of mice of the test group to which the test compound was administered. T/C at each dose given was plotted on the vertical axis and a dose is shown by a logarithmic scale on the horizontal axis. The relationship between the dose and T/C was determined to be a straight line by the least squares method. From the regression formula of the straight line thus obtained, the dose showing T/C=0.5 was calculated to give ED50.

HeLaS3 cells = assay: Growth inhibition test on HeLaS3 cells; format: cell-based; conditions: Homo sapiens, HeLa S3, 1 h exposure, then 72 h incubation at 37° C., Neutral Red
Procedure: Growth inhibition test on HeLaS3 cells
HeLaS3 cells were suspended in an MEM medium containing 10% fetal calf serum and 2 mM glutamine at a density of 3×10^4 cells/ml, and 0.1 ml of the cell suspension was put into each well of a 96-well microtiter plate.
After culturing at 37° C. overnight in a carbon dioxide gas incubator, 0.05 ml each of a test compound appropriately diluted with the medium was added to each well. The cells were further cultured for an hour in the carbon dioxide gas incubator, and the culture supernatant was removed. The residue was washed once with a phosphate buffered saline [PBS (-)] and 0.1 ml each of a fresh medium was added to each well. The cells were further incubated at 37° C. for 72 hours in the carbon dioxide gas incubator. After removal of the culture supernatant, 0.1 ml each of the culture medium containing 0.02% Neutral Red was added to each well, and the cells were further incubated at 37° C. for an hour in the carbon dioxide gas incubator to stain the cells.
After removal of the culture supernatant, each well was washed once with a physiological saline, and the dye was extracted with 0.001N HCl/30% ethanol. Absorbance of the extract at 550 nm was measured with a microplate reader. The cell growth inhibition percentage was calculated according to the following equation from the absorbance of the extract of the cells treated with the test compound in various concentrations and that of the untreated cells. [formula]
From the cell growth inhibition percentage thus obtained, the concentration of the test compound which inhibits cell growth by 50%, i.e. IC50 value, was determined.

Compound | LD50 at 336 h (Acute toxicity) | ED50 (Sarcoma 180 solid tumor) | IC50 (HeLaS3 cells)
CO[C@@]12[C@H](COC(N)=O)C3=C(C(=O)C4=C(OC5=C(C4)C(=O)CC(C)(C)C5)C3=O)N1C[C@@H]1N[C@@H]12 [Compound 13] | 2.9 mg/kg | 1.3 mg/kg | 84 µM
CCC1=C(OC)C(=O)C2=C(C1=O)N1C[C@@H]3N[C@@H]3[C@]1(OC)[C@@H]2COC(N)=O [Compound 15, 6-demethyl-6-ethylmitomycin A] | 8.2 mg/kg | 2.8 mg/kg | –
CO[C@@]12[C@H](COC(N)=O)C3=C(C(=O)C4=C(OC5=C(C4)C(=O)CC(C)C5)C3=O)N1C[C@@H]1N[C@@H]12 (single isomer, unassigned) [Compound 36] | 4.4 mg/kg | 1.3 mg/kg | –
CCC1=C(OC)C(=O)C2=C(C1=O)N1C[C@H]3[C@H](N3C)[C@]1(O)[C@H]2COC(N)=O (stereo partly drawn) [Compound 16, 6-demethyl-6-ethylmitomycin B] | 25 mg/kg | 14 mg/kg | –
CCOC(=O)C(C)(CC1=C(OC)C(=O)C2=C(C1=O)N1C[C@@H]3N[C@@H]3[C@]1(OC)[C@@H]2COC(N)=O)C(C)=O (stereo partly drawn) [Compound 10] | – | – | 1600 µM
CCOC(=O)C1=C(C)OC2=C(C1)C(=O)C1=C(C2=O)[C@@H](COC(N)=O)[C@@]2(OC)[C@H]3N[C@H]3CN12 [Compound 12] | 5.2 mg/kg | 0.7 mg/kg | –
CCC1=C(N)C(=O)C2=C(C1=O)N1C[C@@H]3N[C@@H]3[C@]1(OC)[C@@H]2COC(N)=O [Compound 1, 6-demethyl-6-ethylmitomycin C] | 38 mg/kg | 6.7 mg/kg | 3000 µM
CO[C@@]12[C@H](COC(N)=O)C3=C(C(=O)C4=C(OC5=C(C4)C(=O)CCC5)C3=O)N1C[C@@H]1N[C@@H]12 [Compound 14] | 2.2 mg/kg | 0.84 mg/kg | 65 µM
CO[C@@]12[C@H](COC(N)=O)C3=C(C(=O)C4=C(OC5=C(C4)C(=O)CC(C)C5)C3=O)N1C[C@@H]1N[C@@H]12 (stereo partly drawn) [Compound 37] | – | 0.93 mg/kg | –
CO[C@@]12[C@H](COC(N)=O)C3=C(C(=O)C4=C(OC(C)=C(C(=O)c5ccccc5)C4)C3=O)N1C[C@@H]1N[C@@H]12 [Compound 30] | – | 5.8 mg/kg | –
CO[C@@]12[C@H](COC(N)=O)C3=C(C(=O)C(CC4=C(O)CC(C)(C)CC4=O)=C(N)C3=O)N1C[C@@H]1N[C@@H]12 [Compound 9] | 30 mg/kg | 8 mg/kg | 1500 µM
CO[C@@]12[C@H](COC(N)=O)C3=C(C(=O)C(Cc4ccccc4)=C(N)C3=O)N1C[C@@H]1N[C@@H]12 [Compound 7, 6-benzyl-6-demethylmitomycin C] | > 50 mg/kg | 18 mg/kg | 2300 µM
COc1ccc(C2CC(=O)C3=C(C2)OC2=C(C3)C(=O)C3=C(C2=O)[C@@H](COC(N)=O)[C@@]2(OC)[C@H]4N[C@H]4CN32)cc1 (single isomer, unassigned) [Compound 38] | – | 12 mg/kg | –
